Data on 15 compounds can be found in US10106544B2, “1,2-dihydro-3H-pyrrolo[1,2-C]imidazol-3-one derivatives and their use as antibacterial agents” (priority 2014, dated 2018).

For orientation: MIC means the lowest concentration that inhibits growth of the organism.

Common to all, as to assay: Bacterial growth minimal inhibitory concentration (microdilution, cation-adjusted Mueller-Hinton Broth)
Common to all, as to type: cell-based
Background: In broth dilution the organism is exposed to a series of concentrations in liquid medium.

In one assay the test system is E. coli ATCC25922. Conditions: quinolone-sensitive strain; for MIC: Escherichia coli, ATCC25922, read-out: MIC for E. coli ATCC25922. The protocol:
(§1) Minimal Inhibitory Concentrations (MICs; mg/L) were determined in cation-adjusted Mueller-Hinton Broth by a microdilution method following the description given in “Methods for Dilution Antimicrobial Susceptibility Tests for Bacteria that Grow Aerobically”, Approved standard, 7th ed., a Clinical and Laboratory Standards Institute (CLSI) Document M7-A7, Wayne, Pa., USA (2006).
(§2) All Example compounds were tested against several Gram-positive and Gram-negative bacteria. […] K. pneumoniae A-651 is a multiply-resistant strain (in particular quinolone-resistant), while E. coli ATCC25922 and P. aeruginosa ATCC27853 are quinolone-sensitive strains.

The test system of the next assay is K. pneumoniae A-651. As to conditions: multiply-resistant strain (in particular quinolone-resistant); for MIC: Klebsiella pneumoniae, A651, read-out: MIC for K. Pneumoniae A-651. How it is done:
as §1, §2

The next assay concerns P. aeruginosa ATCC27853. Conditions: for MIC: Pseudomonas aeruginosa, ATCC27853, quinolone-sensitive strain, read-out: MIC for P. aeruginosa ATCC27853. How it is done: as §1, §2

Values after ≈ are worked out from the molar mass of the structure shown.

As to `C[C@@](CCN1Cc2cc(C#CC#C[C@@]3(F)C[C@@H]3CO)cn2C1=O)(C(=O)NO)S(C)(=O)=O` (relative stereo) [Example 67, (R)-4-(6-(((1R*,2R*)-1-fluoro-2-(hydroxymethyl)cyclopropyl)buta-1,3-diyn-1-yl)-3-oxo-1H-pyrrolo[1,2-c]imidazol-2(3H)-yl)-N-hydroxy-2-methyl-2-(methylsulfonyl)butanamide], the “MIC for E. coli ATCC25922” value with E. coli ATCC25922 stood at 0.125 µg/mL. In addition, the “MIC for K. Pneumoniae A-651” value with K. pneumoniae A-651 was determined as 0.5 µg/mL. Besides, the “MIC for P. aeruginosa ATCC27853” value against P. aeruginosa ATCC27853 (quinolone-sensitive strain) stood at 0.5 µg/mL.

For `CC(C)(C)OC(=O)N1CC(O)(c2ccc(C#Cc3cc4n(c3)C(=O)N(CC[C@](C)(C(=O)NO)S(C)(=O)=O)C4)cc2)C1` [Example 59, tert-butyl (R)-3-hydroxy-3-(4-((2-(4-(hydroxyamino)-3-methyl-3-(methylsulfonyl)-4-oxobutyl)-3-oxo-2,3-dihydro-1H-pyrrolo[1,2-c]imidazol-6-yl)ethynyl)phenyl)azetidine-1-carboxylate], the values for the MIC with E. coli ATCC25922, in the assay on K. pneumoniae A-651 and in the assay with P. aeruginosa ATCC27853 were 1 µg/mL (≈ 1.7 µM), 1 µg/mL (≈ 1.7 µM) and 8 µg/mL (≈ 13.6 µM), respectively.

Take `C[C@@](CCN1Cc2cc(C#CC#CC3(N)CC3)cn2C1=O)(C(=O)NO)S(C)(=O)=O.Cl` [Example 38, (R)-4-(6-((1-aminocyclopropyl)buta-1,3-diyn-1-yl)-3-oxo-1H-pyrrolo[1,2-c]imidazol-2(3H)-yl)-N-hydroxy-2-methyl-2-(methylsulfonyl)butanamide hydrochloride]: the MIC with E. coli ATCC25922 was found to be 0.25 µg/mL; in the assay on K. pneumoniae A-651 it was 0.25 µg/mL; in the assay with P. aeruginosa ATCC27853, 1 µg/mL.

In the case of `C[C@@](CCN1Cc2cc(C#Cc3ccc(C(=O)CO)cc3)cn2C1=O)(C(=O)NO)S(C)(=O)=O` [Example 45, (R)-N-hydroxy-4-(6-((4-(2-hydroxyacetyl)phenyl)ethynyl)-3-oxo-1H-pyrrolo[1,2-c]imidazol-2(3H)-yl)-2-methyl-2-(methylsulfonyl)butanamide], the MIC with E. coli ATCC25922 amounted to 0.25 µg/mL (≈ 0.528 µM); in the assay with K. pneumoniae A-651 it was 1 µg/mL (≈ 2.11 µM); with P. aeruginosa ATCC27853, 4 µg/mL (≈ 8.45 µM).

For `C[C@@](CCN1Cc2cc(C#CC#CC[C@@H]3C[C@@H]3CO)cn2C1=O)(C(=O)NO)S(C)(=O)=O` [Example 12, (R)-N-hydroxy-4-(6-(5-((1S,2S)-2-(hydroxymethyl)cyclopropyl)penta-1,3-diyn-1-yl)-3-oxo-1H-pyrrolo[1,2-c]imidazol-2(3H)-yl)-2-methyl-2-(methylsulfonyl)butanamide], the MIC in the assay on E. coli ATCC25922, with K. pneumoniae A-651 and in the assay with P. aeruginosa ATCC27853 was 0.25 µg/mL (≈ 0.559 µM) each time.

In the case of `C[C@@](CCN1Cc2cc(C#Cc3ccc(N4CCC(N)CC4)cc3)cn2C1=O)(C(=O)NO)S(C)(=O)=O` [Example 81, (R)-4-(6-((4-(4-aminopiperidin-1-yl)phenyl)ethynyl)-3-oxo-1H-pyrrolo[1,2-c]imidazol-2(3H)-yl)-N-hydroxy-2-methyl-2-(methylsulfonyl)butanamide], the MIC in the assay with E. coli ATCC25922 amounted to 8 µg/mL (≈ 15.6 µM); in the assay on K. pneumoniae A-651, 16 µg/mL (≈ 31.2 µM); in the assay on P. aeruginosa ATCC27853 it was 2 µg/mL (≈ 3.89 µM).

Turning to `CC(CCN1Cc2cc(-c3ccc(C4(O)COC4)cc3)cn2C1=O)(C(=O)NO)S(C)(=O)=O` (racemic) [RE1, (RS)—N-hydroxy-4-(6-(4-(3-hydroxyoxetan-3-yl)phenyl)-3-oxo-1H-pyrrolo[1,2-c]imidazol-2(3H)-yl)-2-methyl-2-(methylsulfonyl)butanamide], the MIC amounted to 8 µg/mL (≈ 17.3 µM) with E. coli ATCC25922, 16 µg/mL (≈ 34.5 µM) with K. pneumoniae A-651 and 16 µg/mL (≈ 34.5 µM) in the assay with P. aeruginosa ATCC27853.

With `C[C@@](CCN1Cc2cc(/C=C/c3ccc(CO)cc3)cn2C1=O)(C(=O)NO)S(C)(=O)=O` [Example 29, (R)-(E)-N-hydroxy-4-(6-(4-(hydroxymethyl)styryl)-3-oxo-1H-pyrrolo[1,2-c]imidazol-2(3H)-yl)-2-methyl-2-(methylsulfonyl)butanamide], the MIC turned out to be 0.25 µg/mL (≈ 0.559 µM) in the assay with E. coli ATCC25922, 0.5 µg/mL (≈ 1.12 µM) in the assay with K. pneumoniae A-651 and 2 µg/mL (≈ 4.47 µM) in the assay on P. aeruginosa ATCC27853.

Consider `C[C@@](CCN1Cc2cc(C#Cc3ccc([C@@H](O)CO)cc3)cn2C1=O)(C(=O)NO)S(C)(=O)=O` [Example 17, (R)-4-(6-((4-((R)-1,2-dihydroxyethyl)phenyl)ethynyl)-3-oxo-1H-pyrrolo[1,2-c]imidazol-2(3H)-yl)-N-hydroxy-2-methyl-2-(methylsulfonyl)butanamide], for which the MIC in the assay on E. coli ATCC25922, in the assay on K. pneumoniae A-651 and in the assay with P. aeruginosa ATCC27853 was 1 µg/mL (≈ 2.1 µM) in each case.

For the compound `C[C@@](CCN1Cc2cc(C#Cc3ccc(CN4CCC(N)CC4)cc3)cn2C1=O)(C(=O)NO)S(C)(=O)=O.Cl.Cl` [Example 77, (R)-4-(6-((4-((4-aminopiperidin-1-yl)methyl)phenyl)ethynyl)-3-oxo-1H-pyrrolo[1,2-c]imidazol-2(3H)-yl)-N-hydroxy-2-methyl-2-(methylsulfonyl)butanamide dihydrochloride], the MIC in the assay on E. coli ATCC25922 stood at 8 µg/mL; in the assay on K. pneumoniae A-651, 16 µg/mL; in the assay on P. aeruginosa ATCC27853, 2 µg/mL.

For the compound `C[C@@](CCN1Cc2cc(C#Cc3ccc(C4(COC(N)=O)CC4)cc3)cn2C1=O)(C(=O)NO)S(C)(=O)=O` [Example 34, (R)-(1-(4-((2-(4-(hydroxyamino)-3-methyl-3-(methylsulfonyl)-4-oxobutyl)-3-oxo-2,3-dihydro-1H-pyrrolo[1,2-c]imidazol-6-yl)ethynyl)phenyl)cyclopropyl)methyl carbamate], the MIC in the assay on E. coli ATCC25922 was 0.125 µg/mL (≈ 0.236 µM); with K. pneumoniae A-651, 1 µg/mL (≈ 1.89 µM); in the assay on P. aeruginosa ATCC27853 it was 16 µg/mL (≈ 30.3 µM).

`CC(C)(O)C#CC#Cc1cc2n(c1)C(=O)N(CCC(C)(C(=O)NO)S(C)(=O)=O)C2` (racemic) [RE5, (RS)—N-hydroxy-4-(6-(5-hydroxy-5-methylhexa-1,3-diyn-1-yl)-3-oxo-1H-pyrrolo[1,2-c]imidazol-2(3H)-yl)-2-methyl-2-(methylsulfonyl)butanamide]: the MIC with E. coli ATCC25922 was determined as 2 µg/mL (≈ 4.75 µM); with K. pneumoniae A-651, 8 µg/mL (≈ 19 µM); in the assay with P. aeruginosa ATCC27853 it was 4 µg/mL (≈ 9.49 µM).

Consider `CC(C)(N)C#CC#Cc1cc2n(c1)C(=O)N(CC[C@](C)(C(=O)NO)S(C)(=O)=O)C2` [Example 31, (R)-4-(6-(5-amino-5-methylhexa-1,3-diyn-1-yl)-3-oxo-1H-pyrrolo[1,2-c]imidazol-2(3H)-yl)-N-hydroxy-2-methyl-2-(methylsulfonyl)butanamide], for which the MIC in the assay on E. coli ATCC25922, in the assay on K. pneumoniae A-651 and in the assay with P. aeruginosa ATCC27853 was 1 µg/mL (≈ 2.38 µM) in each case.

With `C[C@@](CCN1Cc2cc(C#CC#CC3[C@@H](CO)[C@H]3CO)cn2C1=O)(C(=O)NO)S(C)(=O)=O` (stereo partly drawn) [Example 42, (R)-4-(6-(((2R,3S)-2,3-bis(hydroxymethyl)cyclopropyl)buta-1,3-diyn-1-yl)-3-oxo-1H-pyrrolo[1,2-c]imidazol-2(3H)-yl)-N-hydroxy-2-methyl-2-(methylsulfonyl)butanamide], the MIC with E. coli ATCC25922 is 8 µg/mL (≈ 17.3 µM); in the assay with K. pneumoniae A-651, 8 µg/mL (≈ 17.3 µM); with P. aeruginosa ATCC27853, 4 µg/mL (≈ 8.63 µM).

`CC(C)Oc1ccc(-c2cc3n(c2)C(=O)N(CCC(C)(C(=O)NO)S(C)(=O)=O)C3)cc1F` (racemic) [RE10, (RS)-4-(6-(3-fluoro-4-isopropoxyphenyl)-3-oxo-1H-pyrrolo[1,2-c]imidazol-2(3H)-yl)-N-hydroxy-2-methyl-2-(methylsulfonyl)butanamide]: the values for the minimum inhibitory concentration (MIC) with E. coli ATCC25922, in the assay on K. pneumoniae A-651 and in the assay with P. aeruginosa ATCC27853 were 0.25 µg/mL (≈ 0.535 µM), 8 µg/mL (≈ 17.1 µM) and 2 µg/mL (≈ 4.28 µM), respectively.
